Measured values as given in patent US20190116833A1, “FEED ADDITIVE COMPOSITIONS” (priority 2017, published 2019).
Marks after values point to notes of the source that are not given here.

Columns and labels:
[1] = Growth performance of early weaned pigs, SMBS titration (Example 3); format: in vivo; settings: in words
Text: A total of 1,296 weanling pigs were used to determine the impact of […] on growth performance in 19 to 20 day old pigs. The ratio of same-sow source pens was equalized within treatments. The number of barrows and gilts was balanced within the pen (either 13 […] or 14 […] per pen). Upon arrival weanling pigs were sorted to pens (48 pens with 27 pigs per pen) and weighed as a complete pen of pigs. Pens within block were randomly assigned to one of 4 dietary treatments (1 control and 3 experimental diets; Table 6) in a randomized complete block design. Diets containing testing products were made by mixing the testing products into the basal diet (Table 7).
Pig weights were taken at placement and at the end of each diet phase (day 9 and 23). Feed weights were collected daily and the data was used to calculate ADG, ADFI and F/G for both diet phases and for the entire experimental period (23 days). Blood samples were on day 0 and 23 of the study from one barrow in each pen. Each pen was selected at the beginning of the study, identified with an ear tag, and sampled again at the end of the study. 8.5 mL blood was collected and allowed to clot on ice for at least 1.5 hr and centrifuged at 2,000×g for 13 min (4° C.). Fecal scores for each pen were collected on d 3, 5, 7, and 10 using the following scale: 0=none; 1=mild; 2=substantial; 3=severe (Citation 1: Marquardt et al., 1999).

[2] = Post-weaning pig growth performance, SMBS vs SMBS + formulated yeast, 2-phase feeding (Example 7); format: in vivo
Text: A total of 972 pigs were used to determine the effect of sodium metabisulfite (SMBS) or SMBS plus formulated yeast on weanling pig growth performance. Upon arrival pigs were sorted to pens with 27 pigs per pen. Pigs were weighed on pen basis. Pens within block were randomly assigned to one of 3 dietary treatments (1 control and 2 experimental diets; Table 17) in a randomized complete block design. This will result in 12 pens for each treatment for evaluation of growth performance, fecal scores, and health status.
This experiment was conducted for approximately 22 days in a 2-phase feeding program (Table 18) immediately after weaning. Feed was provided through the FeedLogic® system allowing collection of feed intake data by pen.

Q: For `O=S([O-])S(=O)(=O)[O-].[Na+].[Na+]` [SMBS, sodium metabisulfite], which “ADG and F/G” value ([1]; increasing levels, both phases of the study) is on record?
A: linear (P<0.05) improvements

Q: And the ADG ([1]; titrating from 0 to 10 lb/ton)?
A: Linear increase

Q: What about the F/G ([1]; titrating from 0 to 10 lb/ton) of the same compound?
A: Linear decrease

Q: And the ADFI ([2]; Phase 1 + 2, 22 days)?
A: 0.78^cd lb/day

Q: What about the ADG ([2]; Phase 1 + 2, 22 days) of the same compound?
A: 0.54 lb/day

Q: And the “ADG, change versus Control” value ([2]; Phase 1 + 2, 22 days)?
A: (+10.2%)^b

Q: What about the “F:G” value ([2]; Phase 1 + 2, 22 days) of the same compound?
A: 1.45

Q: What about the “F:G, change versus Control” value ([2]; Phase 1 + 2, 22 days) of the same compound?
A: (−6.5%)^b

Q: And the Mortality ([2]; Phase 1 + 2, 22 days)?
A: 0.6%

Q: What about the Total removal ([2]; Phase 1 + 2, 22 days) of the same compound?
A: 2.2%

Q: What about the ADFI ([2]; Phase 1, 8 days) of the same compound?
A: 0.46 lb/day

Q: What about the ADG ([2]; Phase 1, 8 days) of the same compound?
A: 0.16^d lb/day

Q: What about the “G:F” value ([2]; Phase 1, 8 days) of the same compound?
A: 0.35^d

Q: What about the ADFI ([2]; Phase 2, 14 days) of the same compound?
A: 0.96^ab lb/day

Q: And the ADG ([2]; Phase 2, 14 days)?
A: 0.76^b lb/day

Q: What about the “F:G” value ([2]; Phase 2, 14 days) of the same compound?
A: 1.27^b

Q: And the “BW end of Phase 1” value ([2]; end of Phase 1, 8 days)?
A: 13.4 lb

Q: And the “BW end of Phase 2” value ([2]; end of Phase 2, 14 days)?
A: 24.1^b lb

Q: And the “Start BW” value ([2]; start of experiment (baseline))?
A: 11.8 lb
